In brackets after ≈: the same amount, converted by molar mass.
Experiments:
Klebsiella pneumoniae [1] = test: Antibacterial activity against Klebsiella pneumoniae ATCC 10031 assessed as inhibition of bacterial growth incubated for 24 hrs by broth dilution method; type: functional
Staphylococcus aureus [2] = test: Antibacterial activity against methicillin-resistant Staphylococcus aureus N315 assessed as inhibition of bacterial growth incubated for 24 hrs by broth dilution method; type: functional
Pseudomonas aeruginosa [3] = test: Antibacterial activity against Pseudomonas aeruginosa ATCC 9027 assessed as inhibition of bacterial growth incubated for 24 hrs by broth dilution method; type: functional
Staphylococcus aureus [4] = test: Antibacterial activity against Staphylococcus aureus ATCC 29213 assessed as inhibition of bacterial growth incubated for 24 hrs by broth dilution method; type: functional
[5] = Hemolytic activity against rabbit blood cells incubated for 1 hr relative to control; type: toxicity, cell-based, Oryctolagus cuniculus, Erythrocyte; settings: rabbit blood cells (erythrocytes)
Staphylococcus aureus [6] = test: Antibacterial activity against methicillin-resistant Staphylococcus aureus NCTC 10442 assessed as inhibition of bacterial growth incubated for 24 hrs by broth dilution method; type: functional
Acinetobacter baumannii [7] = test: Antibacterial activity against Acinetobacter baumannii ATCC 17978 assessed as inhibition of bacterial growth incubated for 24 hrs by broth dilution method; type: functional
Klebsiella pneumoniae [8] = test: Antibacterial activity against Klebsiella pneumoniae ATCC 14581 assessed as inhibition of bacterial growth incubated for 24 hrs by broth dilution method; type: functional
Escherichia coli [9] = test: Antibacterial activity against Escherichia coli ATCC 25922 assessed as inhibition of bacterial growth incubated for 24 hrs by broth dilution method; type: functional
Acinetobacter baumannii [10] = test: Antibacterial activity against Acinetobacter baumannii R2889 assessed as inhibition of bacterial growth incubated for 24 hrs by broth dilution method; type: functional
Escherichia coli [11] = test: Bactericidal activity against Escherichia coli ATCC 25922 assessed as bacterial reduction at 8 time of MIC concentration incubated for 2 hrs by time-kill assay; type: functional
Staphylococcus aureus [12] = test: Drug resistance, ratio of MIC for Staphylococcus aureus NCTC 10442 after 21 passages to MIC for Staphylococcus aureus NCTC 10442 during first exposure; type: functional
Pseudomonas aeruginosa [13] = test: In vivo antibacterial activity against Pseudomonas aeruginosa ATCC 9027 infected C57BL6 mouse corneal infection model assessed as reduction in bacterial burden at 3 mg/ml, TOP 4 times in a day for 2 consecutive days; type: functional; settings: time 2 day
Staphylococcus aureus [14] = test: In vivo antibacterial activity against Staphylococcus aureus ATCC 29213 infected C57BL6 mouse corneal infection model assessed as reduction in bacterial burden at 50 mg/ml, TOP 4 times in a day for 3 consecutive days; type: functional; settings: time 3 day

C=C(C)[C@@H]1CCC(C)=C[C@H]1c1c(OCCCCN(C)CCCN(C)CCCNC)cc(CCCCC)cc1OCCCCN(C)CCCN(C)CCCNC
MIC (Klebsiella pneumoniae [1]): 6.25 µg/mL (≈ 8.12 µM)
MIC (Staphylococcus aureus [2]): 3.12 µg/mL (≈ 4.06 µM)
MIC (Pseudomonas aeruginosa [3]): 6.25 µg/mL (≈ 8.12 µM)
MIC (Staphylococcus aureus [4]): 1.56 µg/mL (≈ 2.03 µM)
HC50 at 1 h [5]: > 200 µg/mL
MIC (Staphylococcus aureus [6]): 1.56 µg/mL (≈ 2.03 µM)
MIC (Acinetobacter baumannii [7]): 6.25 µg/mL (≈ 8.12 µM)
MIC (Klebsiella pneumoniae [8]): 6.25 µg/mL (≈ 8.12 µM)
MIC (Escherichia coli [9]): 3.12 µg/mL (≈ 4.06 µM)
MIC (Acinetobacter baumannii [10]): 3.12 µg/mL (≈ 4.06 µM)

C=C(C)[C@@H]1CCC(C)=C[C@H]1c1c(OCCCN)cc(CCCCC)cc1OCCCN
MIC (Klebsiella pneumoniae [1]): 6.25 µg/mL (≈ 14.6 µM)
MIC (Staphylococcus aureus [2]): 6.25 µg/mL (≈ 14.6 µM)
MIC (Pseudomonas aeruginosa [3]): > 50 µg/mL
MIC (Staphylococcus aureus [4]): 6.25 µg/mL (≈ 14.6 µM)
HC50 at 1 h [5]: > 200 µg/mL
MIC (Staphylococcus aureus [6]): 6.25 µg/mL (≈ 14.6 µM)
MIC (Acinetobacter baumannii [7]): 6.25 µg/mL (≈ 14.6 µM)
MIC (Klebsiella pneumoniae [8]): 12.5 µg/mL (≈ 29.2 µM)
MIC (Escherichia coli [9]): 6.25 µg/mL (≈ 14.6 µM)
MIC (Acinetobacter baumannii [10]): 12.5 µg/mL (≈ 29.2 µM)

CC1(C)S[C@@H]2[C@H](NC(=O)[C@H](N)c3ccc(O)cc3)C(=O)N2[C@H]1C(=O)O [AMOXICILLIN]
Activity (Escherichia coli [11]): 2.9 log10FFU/ml
Ratio (Staphylococcus aureus [12]): 8
HC50 at 1 h [5]: > 200 µg/mL
MIC (Escherichia coli [9]): 6.25 µg/mL (≈ 17.1 µM)

C=C(C)[C@@H]1CCC(C)=C[C@H]1c1c(OCCCCNC)cc(CCCCC)cc1OCCCCNC
MIC (Klebsiella pneumoniae [1]): 25 µg/mL (≈ 51.6 µM)
MIC (Staphylococcus aureus [2]): 3.12 µg/mL (≈ 6.45 µM)
MIC (Pseudomonas aeruginosa [3]): > 50 µg/mL
MIC (Staphylococcus aureus [4]): 3.12 µg/mL (≈ 6.45 µM)
HC50 at 1 h [5]: 107 µg/mL
MIC (Staphylococcus aureus [6]): 3.12 µg/mL (≈ 6.45 µM)
MIC (Acinetobacter baumannii [7]): 25 µg/mL (≈ 51.6 µM)
MIC (Klebsiella pneumoniae [8]): 50 µg/mL (≈ 103 µM)
MIC (Escherichia coli [9]): 50 µg/mL (≈ 103 µM)
MIC (Acinetobacter baumannii [10]): 25 µg/mL (≈ 51.6 µM)

NC[C@H]1O[C@H](O[C@H]2[C@H](O)[C@@H](O[C@H]3O[C@H](CO)[C@@H](O)[C@H](N)[C@H]3O)[C@H](N)C[C@@H]2N)[C@H](N)C[C@@H]1O [TOBRAMYCIN]
Activity (Pseudomonas aeruginosa [13]): 4.64 log10FFU/ml
Activity (Staphylococcus aureus [14]): 5.21 log10FFU/ml

C=C(C)[C@@H]1CCC(C)=C[C@H]1c1c(O)cc(CCCCC)cc1O [CANNABIDIOL]
MIC (Klebsiella pneumoniae [1]): > 50 µg/mL
MIC (Staphylococcus aureus [2]): 1.56 µg/mL (≈ 4.96 µM)
MIC (Pseudomonas aeruginosa [3]): > 50 µg/mL
MIC (Staphylococcus aureus [4]): 3.12 µg/mL (≈ 9.94 µM)
HC50 at 1 h [5]: > 200 µg/mL
MIC (Staphylococcus aureus [6]): 3.12 µg/mL (≈ 9.94 µM)
MIC (Acinetobacter baumannii [7]): > 50 µg/mL
MIC (Klebsiella pneumoniae [8]): > 50 µg/mL
MIC (Escherichia coli [9]): > 100 µg/mL
MIC (Acinetobacter baumannii [10]): > 50 µg/mL

C=C(C)[C@@H]1CCC(C)=C[C@H]1c1c(OCCCCN2CCSCC2)cc(CCCCC)cc1OCCCCN1CCSCC1
MIC (Klebsiella pneumoniae [1]): > 50 µg/mL
MIC (Staphylococcus aureus [2]): > 50 µg/mL
MIC (Pseudomonas aeruginosa [3]): > 50 µg/mL
MIC (Staphylococcus aureus [4]): > 50 µg/mL
HC50 at 1 h [5]: > 200 µg/mL
MIC (Staphylococcus aureus [6]): > 50 µg/mL
MIC (Acinetobacter baumannii [7]): > 50 µg/mL
MIC (Klebsiella pneumoniae [8]): > 50 µg/mL
MIC (Escherichia coli [9]): > 100 µg/mL
MIC (Acinetobacter baumannii [10]): > 50 µg/mL

C=C(C)[C@@H]1CCC(C)=C[C@H]1c1c(OCCCCCCCCCCN)cc(CCCCC)cc1OCCCCCCCCCCN
MIC (Klebsiella pneumoniae [1]): > 50 µg/mL
MIC (Staphylococcus aureus [2]): > 50 µg/mL
MIC (Pseudomonas aeruginosa [3]): > 50 µg/mL
MIC (Staphylococcus aureus [4]): > 50 µg/mL
HC50 at 1 h [5]: > 200 µg/mL
MIC (Staphylococcus aureus [6]): > 50 µg/mL
MIC (Acinetobacter baumannii [7]): > 50 µg/mL
MIC (Klebsiella pneumoniae [8]): > 50 µg/mL
MIC (Escherichia coli [9]): > 50 µg/mL
MIC (Acinetobacter baumannii [10]): > 50 µg/mL

C=C(C)[C@@H]1CCC(C)=C[C@H]1c1c(OCC(=O)N[C@@H](CCCNC(=N)N)C(N)=O)cc(CCCCC)cc1OCC(=O)N[C@@H](CCCNC(=N)N)C(N)=O
MIC (Klebsiella pneumoniae [1]): > 50 µg/mL
MIC (Staphylococcus aureus [2]): 12.5 µg/mL (≈ 16.9 µM)
MIC (Pseudomonas aeruginosa [3]): 50 µg/mL (≈ 67.5 µM)
MIC (Staphylococcus aureus [4]): 12.5 µg/mL (≈ 16.9 µM)
HC50 at 1 h [5]: > 200 µg/mL
MIC (Staphylococcus aureus [6]): 12.5 µg/mL (≈ 16.9 µM)
MIC (Acinetobacter baumannii [7]): 50 µg/mL (≈ 67.5 µM)
MIC (Klebsiella pneumoniae [8]): > 50 µg/mL
MIC (Escherichia coli [9]): > 50 µg/mL
MIC (Acinetobacter baumannii [10]): > 50 µg/mL

C=C(C)[C@@H]1CCC(C)=C[C@H]1c1c(OCC(=O)N[C@@H](CCCNC(=N)N)C(=O)N[C@@H](CCCNC(=N)N)C(=O)OC)cc(CCCCC)cc1OCC(=O)N[C@@H](CCCNC(=N)N)C(=O)N[C@@H](CCCNC(=N)N)C(=O)OC
MIC (Klebsiella pneumoniae [1]): 50 µg/mL (≈ 46.2 µM)
MIC (Staphylococcus aureus [2]): 1.56 µg/mL (≈ 1.44 µM)
MIC (Pseudomonas aeruginosa [3]): 50 µg/mL (≈ 46.2 µM)
MIC (Staphylococcus aureus [4]): 1.56 µg/mL (≈ 1.44 µM)
HC50 at 1 h [5]: > 200 µg/mL
MIC (Staphylococcus aureus [6]): 1.56 µg/mL (≈ 1.44 µM)
MIC (Acinetobacter baumannii [7]): 25 µg/mL (≈ 23.1 µM)
MIC (Klebsiella pneumoniae [8]): > 50 µg/mL
MIC (Escherichia coli [9]): 50 µg/mL (≈ 46.2 µM)
MIC (Acinetobacter baumannii [10]): 50 µg/mL (≈ 46.2 µM)

C=C(C)[C@@H]1CCC(C)=C[C@H]1c1c(OCCCCN(CC)CC)cc(CCCCC)cc1OCCCCN(CC)CC
MIC (Klebsiella pneumoniae [1]): 50 µg/mL (≈ 87.9 µM)
MIC (Staphylococcus aureus [2]): 6.25 µg/mL (≈ 11 µM)
MIC (Pseudomonas aeruginosa [3]): > 50 µg/mL
MIC (Staphylococcus aureus [4]): 6.25 µg/mL (≈ 11 µM)
HC50 at 1 h [5]: > 200 µg/mL
MIC (Staphylococcus aureus [6]): 12.5 µg/mL (≈ 22 µM)
MIC (Acinetobacter baumannii [7]): > 50 µg/mL
MIC (Klebsiella pneumoniae [8]): > 50 µg/mL
MIC (Escherichia coli [9]): > 50 µg/mL
MIC (Acinetobacter baumannii [10]): 50 µg/mL (≈ 87.9 µM)

CCn1cc(C(=O)O)c(=O)c2cc(F)c(N3CCNCC3)cc21 [NORFLOXACIN]
Ratio (Staphylococcus aureus [12]): 128

C=C(C)[C@@H]1CCC(C)=C[C@H]1c1c(OCCCCCCCCCCNC(=N)N)cc(CCCCC)cc1OCCCCCCCCCCNC(=N)N
MIC (Klebsiella pneumoniae [1]): > 50 µg/mL
MIC (Staphylococcus aureus [2]): > 50 µg/mL
MIC (Pseudomonas aeruginosa [3]): > 50 µg/mL
MIC (Staphylococcus aureus [4]): 50 µg/mL (≈ 70.5 µM)
HC50 at 1 h [5]: > 200 µg/mL
MIC (Staphylococcus aureus [6]): 50 µg/mL (≈ 70.5 µM)
MIC (Acinetobacter baumannii [7]): > 50 µg/mL
MIC (Klebsiella pneumoniae [8]): > 50 µg/mL
MIC (Escherichia coli [9]): > 50 µg/mL
MIC (Acinetobacter baumannii [10]): > 50 µg/mL

C=C(C)[C@@H]1CCC(C)=C[C@H]1c1c(OCCCCNCCC)cc(CCCCC)cc1OCCCCNCCC
MIC (Klebsiella pneumoniae [1]): 12.5 µg/mL (≈ 23.1 µM)
MIC (Staphylococcus aureus [2]): 3.12 µg/mL (≈ 5.78 µM)
MIC (Pseudomonas aeruginosa [3]): > 50 µg/mL
MIC (Staphylococcus aureus [4]): 3.12 µg/mL (≈ 5.78 µM)
HC50 at 1 h [5]: 79.3 µg/mL
MIC (Staphylococcus aureus [6]): 1.56 µg/mL (≈ 2.88 µM)
MIC (Acinetobacter baumannii [7]): 12.5 µg/mL (≈ 23.1 µM)
MIC (Klebsiella pneumoniae [8]): 25 µg/mL (≈ 46.2 µM)
MIC (Escherichia coli [9]): 25 µg/mL (≈ 46.2 µM)
MIC (Acinetobacter baumannii [10]): 12.5 µg/mL (≈ 23.1 µM)

C=C(C)[C@@H]1CCC(C)=C[C@H]1c1c(OCCCBr)cc(CCCCC)cc1OCCCBr
MIC (Klebsiella pneumoniae [1]): > 50 µg/mL
MIC (Staphylococcus aureus [2]): > 50 µg/mL
MIC (Pseudomonas aeruginosa [3]): > 50 µg/mL
MIC (Staphylococcus aureus [4]): > 50 µg/mL
HC50 at 1 h [5]: > 200 µg/mL
MIC (Staphylococcus aureus [6]): > 50 µg/mL
MIC (Acinetobacter baumannii [7]): > 50 µg/mL
MIC (Klebsiella pneumoniae [8]): > 50 µg/mL
MIC (Escherichia coli [9]): > 50 µg/mL
MIC (Acinetobacter baumannii [10]): > 50 µg/mL

C=C(C)[C@@H]1CCC(C)=C[C@H]1c1c(OCCCCN2CCCC2)cc(CCCCC)cc1OCCCCN1CCCC1
MIC (Klebsiella pneumoniae [1]): 12.5 µg/mL (≈ 22.1 µM)
MIC (Staphylococcus aureus [2]): 3.12 µg/mL (≈ 5.53 µM)
MIC (Pseudomonas aeruginosa [3]): 25 µg/mL (≈ 44.3 µM)
MIC (Staphylococcus aureus [4]): 3.12 µg/mL (≈ 5.53 µM)
HC50 at 1 h [5]: 174 µg/mL
MIC (Staphylococcus aureus [6]): 3.12 µg/mL (≈ 5.53 µM)
MIC (Acinetobacter baumannii [7]): 25 µg/mL (≈ 44.3 µM)
MIC (Klebsiella pneumoniae [8]): 25 µg/mL (≈ 44.3 µM)
MIC (Escherichia coli [9]): 12.5 µg/mL (≈ 22.1 µM)
MIC (Acinetobacter baumannii [10]): 12.5 µg/mL (≈ 22.1 µM)
